Consider five molecules from patent publication US11246868B2, “Treatment of hippo pathway mutant tumors and methods of identifying subjects as candidates for treatment” (ICAHN SCHOOL OF MEDICINE AT MOUNT SINAI, priority 2016, dated 2022).

Entries after “also recorded” stand apart in the source; their conditions may differ.

The subject of assay [1] is TEAD transcriptional activity. Kind of assay: TEAD luciferase reporter assay. The format is cell-based, human. As to conditions: for TEAD reporter activity: 293T and H2373 cells, 24 hours, comparison of TNKS and PARP1/2 inhibitors. The protocol: A set of in-house kinase and commercially available inhibitors was used to screen for effects on the TEAD luciferase reporter. 293 cells expressing the TEAD reporter along with renilla-lucifease (20:1 ratio) were plated at low density (2×10^4 cells) in 24 well plates in triplicate. 24 hours after plating, the cells were treated with 10 μM of each compound or DMSO as control. 24 hours later, dual-luciferase reporter assay was performed according to the manufacturer's protocol (Promega, Madison Wis., USA), using TD-20e Luminometer (Turner Biosystem, Promega, Madison Wis., USA). TEAD reporter activity was normalized to renilla luciferase. The Log 2 values were calculated for each compound using the DMSO sample as control.

Assay [2] relates to angiomotin proteins (AMOT, AMOTL2). As to the kind of experiment: Western blot of angiomotin protein levels. As to conditions: 10 μM; for angiomotin protein levels (AMOT in 293T, AMOTL2 in H2373): 293T and H2373 cells. The format is cell-based, human. How it is done: (§1) Cells were harvested in EBC lysis buffer (50 mM Tris-HCl at pH 7.5, 150 mM NaCl, 5 mM EDTA, 0.5% NP-40), supplemented with Complete Mini Protease and Phosphatase Inhibitor Cocktails (Roche, Indianapolis, Ind., USA). Cells were lysed and 30-80 μg protein subjected to SDS-PAGE followed by transfer onto an Immobilon-FL PVDF membrane (Millipore, Billerica, Mass., USA) and incubation with the indicated antibodies. Detection was carried out with an Odyssey Infrared Imaging System (LI-COR Biosciences, Lincoln, Nebr., USA) with IR dye-tagged secondary antibodies (LI-COR Biosciences). The following antibodies were utilized: mouse anti-YAP, goat anti-NF2, mouse anti-AMOT, goat anti-AMOTL1, goat anti-AMOTL2 (Santa Cruz, Dallas, Tex., USA), mouse anti-FlagM2 (Sigma, Saint Louis, Mo., USA), rabbit anti-LATS1, rabbit anti-LATS2, rabbit anti-p-YAP (Cell Signaling, Danvers, Mass., USA), TNKS1/2 (Santa Cruz, Dallas, Tex., USA), mouse anti-TEAD4, mouse anti-RAS (Thermo Scientific, Waltham, Mass., USA), mouse anti-α-Tubulin, mouse anti-β-actin (Sigma, Saint Louis, Mo., USA).
A general note: A western blot detects proteins with antibodies after separation by electrophoresis.

The subject of assay [3] is TEAD target genes (CTGF, CYR61, ANKRD1). As to the kind of experiment: Quantitative RT-PCR of TEAD target genes. The class given is cell-based, human. As to conditions: for TEAD target gene expression (CTGF, CYR61, ANKRD1 mRNA): 293T and H2373 cells, 10 μM. The protocol:
(§2) Total RNA was extracted from cells using the RNeasy Mini kit (Qiagen, Hilden, Germany) following the manufacturer's instructions. 1 μg of total RNA was used for cDNA synthesis using Superscript II (Invitrogen, Carlsbad, Calif., USA) according to the manufacturer's instructions.
(§3) Quantitative RT-PCR was performed using the ViiA™ 7 Real-Time PCR System (Life Technologies, Carlsbad, Calif., USA) using the FastStart SYBR Green Master mix (Roche, Indianapolis, Ind., USA). Primers were as follows: […]
(§4) PCR was performed in 384 well plates in 10 μl total volumes under the following conditions: 95° C. for 15 min, followed by 40 cycles of 94° C. for 15 sec, 61° C. for 30 sec, and 72° C. for 30 sec. Specificity was verified by a dissociation curve. Results were analyzed with ViiA7 RUO software (Life Technologies, Carlsbad, Calif., USA). Gene expression levels were normalized to GAPDH expression.

Assay [4] relates to AMOT, AMOTL1, AMOTL2 mRNA. As to the kind of experiment: qRT-PCR of angiomotin mRNA levels. The class given is cell-based, human. The conditions noted are these: 293T and H2373 cells, 10 μM, 24 hours. The protocol:
as §2, §3, §4
On the technique in general: Quantitative PCR measures a nucleic acid by following its amplification.

Assay [5] has as its system H2373 cells. Kind of assay: Clonogenic proliferation (colony formation) assay, H2373. The class given is cell-based, human. The conditions noted are these: for proliferation / colony formation: H2373 cells (NF2 mutant), 10 to 14 days.
Description: (§6) For clonogenic proliferation assay, cells were plated in triplicate at 1×10^3 cells in 6-well plates. For analysis of the effects of inhibitors on cell proliferation, fresh medium with inhibitor was replaced every 48 hours. After 10 to 14 days of treatment, cultures were fixed and stained with 1% crystal violet (in ethanol) and photographed.
The test system of assay [6] is 293T cells. As to the kind of experiment: Clonogenic proliferation (colony formation) assay, 293T. The class given is cell-based, human. As to conditions: 10 to 14 days.
Description: as §6
Assay [7] concerns angiomotin. As to conditions: reported by Wang et al. 2015; cited from earlier work.
For assay [8], the system named is AMOT-YAP protein complex. Kind of assay: Co-immunoprecipitation of endogenous AMOT and YAP. The format is cell-based, human. The conditions noted are these: 293T cells, 10 μM, 24 hours.
Description: Cells were harvested in RIPA lysis buffer (50 mM Tris-Cl; pH 8.0, 5 mM EDTA, 1% Triton X-100, 0.1% sodium deoxycholate, 0.1% SDS, 150 mM NaCl) supplemented with Complete Mini Protease and Phosphatase Inhibitor Cocktails. 800 μg proteins were incubated with 10 μg of antibody overnight at 4° C. Anti-mouse or anti-rabbit IgG (Santa Cruz, Dallas, Tex., USA) was used as a negative control. Immunoprecipitated complexes were captured by 2 h incubation at 4° C. with Dynabeads Protein A/G B (Invitrogen, Carlsbad, Calif., USA), followed by three washes in lysis buffer. Immunoprecipitated complexes were eluted by boiling for 5 min with Laemmli buffer (150 mM Tris-Cl; pH 6.8, 20% glycerol, 4% SDS, 0.002% bromophenol blue, 2% 2-mercaptoethanol) with 10% of the total lysates run on the same gel for comparative immunoblot analysis.
Assay [9] relates to YAP S127 phosphorylation. Kind of assay: Western blot of YAP S127 phosphorylation. The format is cell-based, human. As to conditions: H2373 cells, varying XAV939 concentrations, 24 hours. The protocol: as §1
Assay [10] has as its system PTEN. As to the kind of experiment: Western blot of PTEN levels. The format is cell-based, human. As to conditions: H2052 and H2373 cells, 10 μM, time course. The protocol: as §1
The test system of assay [11] is YAP. Kind of assay: Immunofluorescence of YAP sub-cellular localization. The format is cell-based, human. The conditions noted are these: 24 hours. The protocol: Cells cultured on glass coverslips were fixed for 10 min with 4% paraformaldehyde in 1×PBS at 37° C. and permeabilized for 3 min with 0.02% Triton-X100, following exposure for 1 hour to a blocking solution (PBS containing 5% BSA). Coverslips were then incubated at room temperature with the following primary antibodies: anti-YAP (Santa Cruz, Dallas, Tex., USA) and anti-Flag M2 (Sigma, Saint Louis, Mo., USA). Corresponding secondary antibodies were Alexa fluor conjugated (Molecular Probes, Eugene, Oreg., USA). 2 μg/ml DAPI was used as a counter stain and was used to label nuclei. Imaging was performed using an Axioplan 2 Imaging System (Zeiss, Oberkochen, Germany).

In assay [12] the test system is YAP overexpressing MCF10A cells. As to conditions: cited from earlier work.
In assay [13] the test system is MCF10A cells stably expressing HRAS-V12. As to the kind of experiment: Anchorage-independent growth assay, HRAS-V12-transformed MCF10A. The class given is cell-based, human. As to conditions: MCF10A stably expressing HRAS-V12, 3 weeks. How it is done:
(§5) Cells were fed every 4 days for 3 weeks by adding 0.2 mL of growth medium containing either 0.1% DMSO as a control or compounds in 0.1% DMSO at the concentrations indicated.

Assay [14] relates to Hippo pathway mutant tumor cells and Hippo pathway wild-type cells. Kind of assay: Cell cycle profile by Propidium Iodide staining. The format is cell-based, human. The conditions noted are these: 10 μM, 72 hours. From the text: Statistical analysis of the cell cycle profile is shown below. Error bars indicate SD of experiments performed in triplicate.
For assay [15], the system named is MCF10A cells stably expressing YAP-WT or YAP-S127A. Kind of assay: Anchorage-independent growth assay, YAP-transformed MCF10A. The format is cell-based, human. The conditions noted are these: 3 weeks. The protocol:
as §5

For assay [16], the system named is liver tumor growth induced by YAP overexpression or NF2 inactivation. As to conditions: mice, tumors induced by YAP overexpression or NF2 inactivation; cited from earlier work.

Consider `C[C@]1(c2nc3c(C(N)=O)cccc3[nH]2)CCCN1` [ABT-888], for which the TEAD reporter activity entry in assay [1] is recorded as “did not affect”. For the same molecule, the “angiomotin protein levels (AMOT in 293T, AMOTL2 in H2373)” value (“angiomotin protein levels” below) in assay [2] (24 hours) was “lacked any effect”. Besides, the “TEAD target gene expression (CTGF, CYR61, ANKRD1 mRNA)” value (“TEAD target gene expression” below) in assay [3] (24 hours) is “did not affect”. Moreover, the “AMOT, AMOTL1, AMOTL2 mRNA levels” value in assay [4] is listed as “lacked any effect”. In addition, the “proliferation / colony formation” value in assay [5] and in assay [6] was “did not affect” each time.

For `O=C(Nc1cccc2cccnc12)c1ccc(N2C(=O)[C@@H]3[C@H](C2=O)[C@@H]2C=C[C@H]3C2)cc1` [IWR1], the TEAD reporter activity result in [1] is recorded as “able to inhibit”. Besides, in assay [2] (24 hours), the “angiomotin protein levels” value is listed as “strikingly increased”. In addition, the “TEAD target gene expression” value in [3] (24 hours) is recorded as “able to inhibit”. Also, in assay [4], the “AMOT, AMOTL1, AMOTL2 mRNA levels” value is “did not markedly affect”. Besides, the “proliferation / colony formation” value in [5] was “significantly decreased”.

Regarding `CC(C)c1ccc(-c2cc(=O)c3ccccc3o2)cc1` [MN-64], the TEAD reporter activity result in [1] is “able to inhibit”. The “angiomotin protein levels” value in assay [2] (24 hours) is on record as “strikingly increased”. Also, the “TEAD target gene expression” value in assay [3] (24 hours) was “able to inhibit”. Also, the “AMOT, AMOTL1, AMOTL2 mRNA levels” value in [4] is listed as “did not markedly affect”. Also, in [5], the “proliferation / colony formation” value is recorded as “significantly decreased”.

Regarding `Oc1nc(-c2ccc(C(F)(F)F)cc2)nc2c1CSCC2` [XAV939], the angiomotin stabilization result in [7] is given as “stabilized”. In assay [8], the AMOT-YAP protein complex result is recorded as “enrichment”. Moreover, in assay [9], the “YAP S127 phosphorylation status” value is “did not show any significant differences”. For the same molecule, in assay [1] (H2373 cells, doxycycline-inducible AMOTL2 shRNA, 10 μM XAV939), the “inhibitory effect on TEAD transcriptional activity under AMOTL2 silencing” value is “almost completely rescued”. The “levels of PTEN” value in assay [10] is “increased modestly”. For the same molecule, the YAP sub-cellular localization entry in assay [11] (H2373 cells, endogenous YAP) is recorded as “induced YAP re-localization to the cytoplasm”. Also, the YAP-S127A sub-cellular localization entry in [11] (MCF10A stably expressing YAP-S127A) is “significant shift of YAPS127A to the cytoplasm”. Moreover, the “angiomotin protein levels” value in assay [2] (24 hours) is “strikingly increased”. Further, the AMOTL2 protein levels entry in assay [2] (H2052 cells, 24 hrs) was “increased”. The “AMOTL2 protein levels, time course” value in assay [2] (H2373 as compared to resistant H2052 cells, 12 days) is reported as “stabilized higher, durable levels”. Further, in [2] (Hippo mutant MESO25 and 211H cells, 24 hours), the AMOTL2 levels result is “Increased”. Also, in [2] (resistant H2052 cells), the “durable stabilization of AMOTL2” value is on record as “failed to durably stabilize”. For the same molecule, the “expression of TEAD target genes (CTGF, CYR61, ANKRD1 mRNA)” value in assay [3] (H2052 cells, 24 hours) is “only modestly affected”; in assay [3] (all cell lines tested with the exception of H2052, 24 hours), “markedly decreased”. Moreover, in [3] (MCF10A cells stably overexpressing YAP-S127A), the “expression of TEAD target genes” value is “inhibited”. In assay [12], the “acini formation in matrigel” value is “inhibited”. For the same molecule, the “HRAS-V12-induced agar colony formation” value in assay [13] is listed as “lacked any effect; also recorded: not inhibited”. For the same molecule, the “AMOT, AMOTL1, AMOTL2 mRNA levels” value in assay [4] is reported as “did not markedly affect”. Further, the cell cycle profile result was “no detectable cell cycle alteration” in assay [14] (cell lines which were not growth inhibited); “increased G1 and reduced S phase fractions” in assay [14] (tumor lines whose proliferation was inhibited). Further, in assay [5] (H2373 cells, doxycycline-inducible AMOTL2 shRNA, 10 μM XAV939, 14 days), the “inhibitory effect on colony formation under AMOTL2 silencing” value is “almost completely rescued”.

For the molecule verteporfin, in [15], the “YAP-WT- and YAP-S127A-induced anchorage-independent cell growth (soft agar colonies)” value is “completely blocked”. Also, the “HRAS-V12-induced agar colony formation” value in assay [13] is listed as “completely blocked”. The liver tumor growth entry in [16] is reported as “suppressed”.
